Here are results for one molecule from patent publication US4229528A, “Fluorescence method for enzyme analysis which couples aromatic amines with aromatic aldehydes” (priority 1978, dated 1980).

Molecules are shown by their SMILES.

The experiment concerns arylamidase activity. Description: Inhibitory effect of 5NSA on arylamidase activity (initial hydrolytic rates with and without added 5NSA). In kind it is biochemical. From the text: At 10 mmol/liter, 50% inhibition of all enzyme activities occurs. Interfering side reactions with 5NSA may occur. The compound reacts with both aliphatic and aromatic amine groups to form Schiff-Base complexes. Particularly susceptible are proteins containing lysine and glutamine. […] Cell proteins react at higher concentrations, i.e., above 1 mmol/liter of 5NSA, to form a blue-green fluorescence, which may account for as much as 15% of the cellular fluorescence at 530 nm. Use of appropriate filters to block out green fluorescence will block out the nonspecific cell protein reaction with 5NSA.

Setting [1] is: 1 mmol/liter 5NSA, initial hydrolytic rate with vs without 5NSA.

Turning to `O=Cc1cc([N+](=O)[O-])ccc1O` [5NSA, 5-nitrosalicylaldehyde], under setting [1], the “Effect on Carbobenzoxy-arg-arg-4M2NA hydrolysis” value is “not affected significantly” and the “Effect on Lys-Ala-4M2NA activity” value was “not affected significantly”. Moreover, where the note is “10 mmol/liter 5NSA”, the “inhibition of all enzyme activities” value amounted to 50%.
